Assay results as given in PubChem BioAssay AID2060904 (Molecular Pharmacology Branch, DTP, NCI, 2025).

Test system: 349418-098-R-PDC complex spheroid viability
Assay: Anticancer human tumor 349418-098-R-PDC patient-derived lung adenocarcinoma cell line growth inhibition [RAS]
Conditions: for IC50: curve of first compound; for viability, T/C: stronger effect = lower value
How it was run: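 Multi-cell-type spheroids: tumor cells plus HUVEC endothelial cells and mesenchymal stem cells. RAS-pathway inhibitors were combined with targeted agents, each dosed in half-log steps down from clinical Cmax, or from 10 microM when Cmax was unknown.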

[1] = second compound 0.000949 µM, first compound 0.000949 µM
[2] = second compound 0.000949 µM, first compound 0.003 µM
[3] = second compound 0.000949 µM, first compound 0.00949 µM
[4] = second compound 0.000949 µM, first compound 0.03 µM
[5] = second compound 0.000949 µM, first compound 0.0949 µM
[6] = second compound 0.000949 µM, first compound 0.3 µM
[7] = second compound 0.003 µM, first compound 0.000949 µM
[8] = second compound 0.003 µM, first compound 0.003 µM
[9] = second compound 0.003 µM, first compound 0.00949 µM
[10] = second compound 0.003 µM, first compound 0.03 µM
[11] = second compound 0.003 µM, first compound 0.0949 µM
[12] = second compound 0.003 µM, first compound 0.3 µM
[13] = second compound 0.00949 µM, first compound 0.000949 µM
[14] = second compound 0.00949 µM, first compound 0.003 µM
[15] = second compound 0.00949 µM, first compound 0.00949 µM
[16] = second compound 0.00949 µM, first compound 0.03 µM
[17] = second compound 0.00949 µM, first compound 0.0949 µM
[18] = second compound 0.00949 µM, first compound 0.3 µM
[19] = second compound 0.03 µM, first compound 0.000949 µM
[20] = second compound 0.03 µM, first compound 0.003 µM
[21] = second compound 0.03 µM, first compound 0.00949 µM
[22] = second compound 0.03 µM, first compound 0.03 µM
[23] = second compound 0.03 µM, first compound 0.0949 µM
[24] = second compound 0.03 µM, first compound 0.3 µM
[25] = second compound 0.0949 µM, first compound 0.000949 µM
[26] = second compound 0.0949 µM, first compound 0.003 µM
[27] = second compound 0.0949 µM, first compound 0.00949 µM
[28] = second compound 0.0949 µM, first compound 0.03 µM
[29] = second compound 0.0949 µM, first compound 0.0949 µM
[30] = second compound 0.0949 µM, first compound 0.3 µM
[31] = second compound 0.3 µM, first compound 0.000949 µM
[32] = second compound 0.3 µM, first compound 0.003 µM
[33] = second compound 0.3 µM, first compound 0.00949 µM
[34] = second compound 0.3 µM, first compound 0.03 µM
[35] = second compound 0.3 µM, first compound 0.0949 µM
[36] = second compound 0.3 µM, first compound 0.3 µM
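Further: spheroids exposed to compound for seven days before viability readout.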

Q: Which results are given for `C=CC(=O)N1CCN(c2nc(OCC3CCCN3C)nc3c(F)c(-c4nc(N)cc(C)c4C(F)(F)F)c(Cl)cc23)C(C)C1` (stereo unspecified) + CCn1c(-c2cccnc2C(C)OC)c2c3cc(ccc31)N1CCOC(CC(NC(=O)C(C(C)C)N(C)C(=O)C3(F)CCN(C(=O)C#CC(C)(C)N(C)C)CC3)C(=O)N3CCCC(N3)C(=O)OCC(C)(C)C2)C1?
A: IC50 (second compound 0.000949 µM): > 1000 nM; IC50 (second compound 0.003 µM): > 1000 nM; IC50 (second compound 0.00949 µM): > 1000 nM; IC50 (second compound 0.03 µM): > 1000 nM; IC50 (second compound 0.0949 µM): > 1000 nM; IC50 (second compound 0.3 µM): > 1000 nM; viability, T/C (second compound 0.000949 µM, first compound 0.00316 µM): 99%; viability, T/C (second compound 0.000949 µM, first compound 0.01 µM): 94%; viability, T/C (second compound 0.000949 µM, first compound 0.0316 µM): 111%; viability, T/C (second compound 0.000949 µM, first compound 0.1 µM): 106%; viability, T/C (second compound 0.000949 µM, first compound 0.316 µM): 116%; viability, T/C (second compound 0.000949 µM, first compound 1 µM): 87.4%; viability, T/C (second compound 0.003 µM, first compound 0.00316 µM): 112%; viability, T/C (second compound 0.003 µM, first compound 0.01 µM): 97.6%; viability, T/C (second compound 0.003 µM, first compound 0.0316 µM): 103%; viability, T/C (second compound 0.003 µM, first compound 0.1 µM): 92.6%; viability, T/C (second compound 0.003 µM, first compound 0.316 µM): 109%; viability, T/C (second compound 0.003 µM, first compound 1 µM): 82.8%; viability, T/C (second compound 0.00949 µM, first compound 0.00316 µM): 105%; viability, T/C (second compound 0.00949 µM, first compound 0.01 µM): 98.3%; viability, T/C (second compound 0.00949 µM, first compound 0.0316 µM): 101%; viability, T/C (second compound 0.00949 µM, first compound 0.1 µM): 101%; viability, T/C (second compound 0.00949 µM, first compound 0.316 µM): 105%; viability, T/C (second compound 0.00949 µM, first compound 1 µM): 98.8%; viability, T/C (second compound 0.03 µM, first compound 0.00316 µM): 99.3%; viability, T/C (second compound 0.03 µM, first compound 0.01 µM): 97.4%; viability, T/C (second compound 0.03 µM, first compound 0.0316 µM): 90.2%; viability, T/C (second compound 0.03 µM, first compound 0.1 µM): 104%; viability, T/C (second compound 0.03 µM, first compound 0.316 µM): 103%; viability, T/C (second compound 0.03 µM, first compound 1 µM): 83.3%; viability, T/C (second compound 0.0949 µM, first compound 0.00316 µM): 102%; viability, T/C (second compound 0.0949 µM, first compound 0.01 µM): 89%; viability, T/C (second compound 0.0949 µM, first compound 0.0316 µM): 85.5%; viability, T/C (second compound 0.0949 µM, first compound 0.1 µM): 89.7%; viability, T/C (second compound 0.0949 µM, first compound 0.316 µM): 100%; viability, T/C (second compound 0.0949 µM, first compound 1 µM): 89%; viability, T/C (second compound 0.3 µM, first compound 0.00316 µM): 85.4%; viability, T/C (second compound 0.3 µM, first compound 0.01 µM): 95.2%; viability, T/C (second compound 0.3 µM, first compound 0.0316 µM): 83.8%; viability, T/C (second compound 0.3 µM, first compound 0.1 µM): 87.8%; viability, T/C (second compound 0.3 µM, first compound 0.316 µM): 101%; viability, T/C (second compound 0.3 µM, first compound 1 µM): 80%

Q: With `CC1(C)CCC(Nc2ncc(C(F)(F)F)c(-c3c[nH]c4c(P(C)(C)=O)c(C#N)ccc34)n2)CN1` (stereo unspecified) + CCn1c(-c2cccnc2C(C)OC)c2c3cc(ccc31)N1CCOC(CC(NC(=O)C(C(C)C)N(C)C(=O)C3(F)CCN(C(=O)C#CC(C)(C)N(C)C)CC3)C(=O)N3CCCC(N3)C(=O)OCC(C)(C)C2)C1 as the compound, how does the IC50 (second compound 0.000949 µM) read?
A: < 0.949 nM

Q: And the IC50 (second compound 0.003 µM)?
A: 1.31 nM

Q: And the IC50 (second compound 0.00949 µM)?
A: < 0.949 nM

Q: And the IC50 (second compound 0.03 µM)?
A: 1.25 nM

Q: What about the IC50 (second compound 0.0949 µM) of the same compound?
A: 1.02 nM

Q: And the IC50 (second compound 0.3 µM)?
A: 1.15 nM

Q: What about the viability, T/C [1] of the same compound?
A: 36.9%

Q: What about the viability, T/C [2] of the same compound?
A: 19.5%

Q: And the viability, T/C [3]?
A: 10.7%

Q: And the viability, T/C [4]?
A: 8.99%

Q: And the viability, T/C [5]?
A: 8.61%

Q: What about the viability, T/C [6] of the same compound?
A: 7.56%

Q: What about the viability, T/C [7] of the same compound?
A: 60.5%

Q: What about the viability, T/C [8] of the same compound?
A: 22.8%

Q: And the viability, T/C [9]?
A: 14.4%

Q: And the viability, T/C [10]?
A: 9.79%

Q: And the viability, T/C [11]?
A: 9.1%

Q: And the viability, T/C [12]?
A: 8.13%

Q: And the viability, T/C [13]?
A: 49.8%

Q: And the viability, T/C [14]?
A: 19.5%

Q: What about the viability, T/C [15] of the same compound?
A: 12.2%

Q: And the viability, T/C [16]?
A: 9.39%

Q: And the viability, T/C [17]?
A: 9.09%

Q: And the viability, T/C [18]?
A: 6.88%

Q: What about the viability, T/C [19] of the same compound?
A: 59.3%

Q: And the viability, T/C [20]?
A: 21.2%

Q: And the viability, T/C [21]?
A: 12.3%

Q: What about the viability, T/C [22] of the same compound?
A: 8.37%

Q: What about the viability, T/C [23] of the same compound?
A: 9.21%

Q: And the viability, T/C [24]?
A: 7.47%

Q: And the viability, T/C [25]?
A: 52.1%

Q: And the viability, T/C [26]?
A: 22%

Q: What about the viability, T/C [27] of the same compound?
A: 9.91%

Q: And the viability, T/C [28]?
A: 7.89%

Q: What about the viability, T/C [29] of the same compound?
A: 8.73%

Q: What about the viability, T/C [30] of the same compound?
A: 7.62%

Q: And the viability, T/C [31]?
A: 55.7%

Q: And the viability, T/C [32]?
A: 22.5%

Q: And the viability, T/C [33]?
A: 9.85%

Q: What about the viability, T/C [34] of the same compound?
A: 9.41%

Q: And the viability, T/C [35]?
A: 8.24%

Q: And the viability, T/C [36]?
A: 6.74%

Q: How did the IC50 (second compound 0.000949 µM) turn out when `CCc1c2c(nc3ccc(O)cc13)-c1cc3c(c(=O)n1C2)COC(=O)[C@]3(O)CC` + CCn1c(-c2cccnc2C(C)OC)c2c3cc(ccc31)N1CCOC(CC(NC(=O)C(C(C)C)N(C)C(=O)C3(F)CCN(C(=O)C#CC(C)(C)N(C)C)CC3)C(=O)N3CCCC(N3)C(=O)OCC(C)(C)C2)C1 was run?
A: 2.21 nM

Q: What about the IC50 (second compound 0.003 µM) of the same compound?
A: 2.57 nM

Q: What about the IC50 (second compound 0.00949 µM) of the same compound?
A: 2.86 nM

Q: What about the IC50 (second compound 0.03 µM) of the same compound?
A: 2.62 nM

Q: And the IC50 (second compound 0.0949 µM)?
A: 2.42 nM

Q: What about the IC50 (second compound 0.3 µM) of the same compound?
A: 1.43 nM

Q: What about the viability, T/C [1] of the same compound?
A: 77.2%

Q: What about the viability, T/C [2] of the same compound?
A: 40.1%

Q: And the viability, T/C [3]?
A: 10.9%

Q: What about the viability, T/C [4] of the same compound?
A: 4.7%

Q: And the viability, T/C [5]?
A: 2.54%

Q: What about the viability, T/C [6] of the same compound?
A: 2.43%

Q: What about the viability, T/C [7] of the same compound?
A: 99.5%

Q: What about the viability, T/C [8] of the same compound?
A: 42.5%

Q: What about the viability, T/C [9] of the same compound?
A: 13.3%

Q: And the viability, T/C [10]?
A: 6.22%

Q: What about the viability, T/C [11] of the same compound?
A: 2.99%

Q: What about the viability, T/C [12] of the same compound?
A: 2.08%

Q: And the viability, T/C [13]?
A: 98.7%

Q: What about the viability, T/C [14] of the same compound?
A: 47.9%

Q: And the viability, T/C [15]?
A: 15.6%

Q: And the viability, T/C [16]?
A: 5.26%

Q: And the viability, T/C [17]?
A: 2.91%

Q: And the viability, T/C [18]?
A: 2.15%

Q: What about the viability, T/C [19] of the same compound?
A: 86.4%

Q: What about the viability, T/C [20] of the same compound?
A: 45.1%

Q: And the viability, T/C [21]?
A: 14.1%

Q: And the viability, T/C [22]?
A: 5.2%

Q: And the viability, T/C [23]?
A: 2.57%

Q: And the viability, T/C [24]?
A: 2.19%

Q: And the viability, T/C [25]?
A: 94.7%

Q: And the viability, T/C [26]?
A: 39.9%

Q: And the viability, T/C [27]?
A: 11.3%

Q: And the viability, T/C [28]?
A: 5.33%

Q: And the viability, T/C [29]?
A: 2.49%

Q: What about the viability, T/C [30] of the same compound?
A: 1.47%

Q: And the viability, T/C [31]?
A: 65.3%

Q: And the viability, T/C [32]?
A: 22.4%

Q: And the viability, T/C [33]?
A: 7.03%

Q: What about the viability, T/C [34] of the same compound?
A: 4.31%

Q: What about the viability, T/C [35] of the same compound?
A: 2.68%

Q: What about the viability, T/C [36] of the same compound?
A: 1.47%
